What was measured:
[1] = test system: Triticum aestivum (TRZAS); experiment: Drought stress test on crop plants, spray application in greenhouse, visual damage rating; type: in vivo; conditions: mean of three results
Procedure: Seeds of monocotyledonous and dicotyledonous crop plants were placed in sandy loam in wood-fiber pots, covered with soil and cultivated in a greenhouse under good growth conditions. The test plants were treated at the early leaf stage (BBCH10-BBCH13). To ensure uniform water supply before commencement of stress, the potted plants were supplied with the maximum amount of water immediately beforehand by dam irrigation and, after application, transferred in plastic inserts in order to prevent subsequent, excessively rapid drying. The inventive compounds, formulated in the form of wettable powders (WP), wettable granules (WG), suspension concentrates (SC) or emulsion concentrates (EC), were sprayed onto the green parts of the plants as an aqueous suspension at an equivalent water application rate of 600 l/ha with addition of 0.2% wetting agent (agrotin). Substance application was followed immediately by stress treatment of the plants (cold or drought stress). For cold stress treatment, the plants were kept under the following controlled conditions: Drought stress was induced by gradual drying out under the following conditions: “day”: 14 hours with illumination at 26° C. “night”: 10 hours without illumination at 18° C. The duration of the respective stress phases was guided mainly by the state of the untreated, stressed control plants and thus varies from crop to crop. It was ended (by re-irrigating or transfer to a greenhouse with good growth conditions) as soon as irreversible damage is observed on the untreated, stressed control plants. In the case of dicotyledonous crops, for example oilseed rape and soya, the duration of the drought stress phase was between 3 and 5 days, in the case of monocotyledonous crops, for example wheat, barley or corn, between 6 and 10 days. The duration of the cold stress phase varied between 12 and 14 days. The end of the stress phase was followed by an approx. 5-7-day recovery phase, during which the plants were once again kept under good growth conditions in a greenhouse. In order to rule out any influence of the effects observed by any fungicidal action of the test compounds, it was additionally ensured that the tests proceed without fungal infection and without infection pressure. After the recovery phase had ended, the intensities of damage were rated visually compared to untreated, unstressed controls of the same age (in the case of drought stress) or the same growth stage (in the case of cold stress). The intensity of damage was first assessed as a percentage (100%=plants have died, 0%=like control plants). These values were then used to calculate the efficacy of the test compounds (=percentage reduction in the intensity of damage as a result of substance application) by the following formula: [formula] EF: efficacy (%) DVus: damage value of the untreated, stressed control DVts: damage value of the plants treated with test compound The tables below list mean values in each case from three results of the same test. Effects of selected compounds of the formula (I) under drought stress: TRZAS=Triticum aestivum

[2] = test system: Zea mays (ZEAMX); experiment: Cold stress test on crop plants, spray application in greenhouse, visual damage rating; type: in vivo; conditions: mean of three results
Procedure: Seeds of monocotyledonous and dicotyledonous crop plants were placed in sandy loam in wood-fiber pots, covered with soil and cultivated in a greenhouse under good growth conditions. The test plants were treated at the early leaf stage (BBCH10-BBCH13). To ensure uniform water supply before commencement of stress, the potted plants were supplied with the maximum amount of water immediately beforehand by dam irrigation and, after application, transferred in plastic inserts in order to prevent subsequent, excessively rapid drying. The inventive compounds, formulated in the form of wettable powders (WP), wettable granules (WG), suspension concentrates (SC) or emulsion concentrates (EC), were sprayed onto the green parts of the plants as an aqueous suspension at an equivalent water application rate of 600 l/ha with addition of 0.2% wetting agent (agrotin). Substance application was followed immediately by stress treatment of the plants (cold or drought stress). For cold stress treatment, the plants were kept under the following controlled conditions: “day”: 12 hours with illumination at 8° C. “night”: 12 hours without illumination at 1° C. The duration of the respective stress phases was guided mainly by the state of the untreated, stressed control plants and thus varies from crop to crop. It was ended (by re-irrigating or transfer to a greenhouse with good growth conditions) as soon as irreversible damage is observed on the untreated, stressed control plants. In the case of dicotyledonous crops, for example oilseed rape and soya, the duration of the drought stress phase was between 3 and 5 days, in the case of monocotyledonous crops, for example wheat, barley or corn, between 6 and 10 days. The duration of the cold stress phase varied between 12 and 14 days. The end of the stress phase was followed by an approx. 5-7-day recovery phase, during which the plants were once again kept under good growth conditions in a greenhouse. […] The intensity of damage was first assessed as a percentage (100%=plants have died, 0%=like control plants). […]

## NC(=O)c1cccc2[nH]c(C(F)(F)C(F)(F)F)nc12 [1-2, 2-(pentafluoroethyl)-1H-benzimidazole-4-carboxamide]
[1]; 25 g/ha
  EF (TRZAS), efficacy = percentage reduction in the intensity of damage: >5%
[2]; 5 g/ha
  EF (ZEAMX), efficacy = percentage reduction in the intensity of damage: >5%

## NC(=O)c1cccc2[nH]c(C(F)(F)C(F)(F)C(F)(F)F)nc12 [1-17]
[1]; 250 g/ha
  EF (TRZAS), efficacy = percentage reduction in the intensity of damage: >5%
[2]; 25 g/ha
  EF (ZEAMX), efficacy = percentage reduction in the intensity of damage: >5%

— patent US20110218103A1, “Fluoroalkyl-substituted 2-amidobenzimidazoles” (BAYER CROPSCIENCE AG, priority 2010, published 2011)
